Experimental data from patent US11564923B2, “Compounds and pharmaceutical compositions thereof for the treatment of inflammatory disorders” (Galapagos NV, priority 2017, dated 2023).

Columns and labels:
[1] = biological target: Recombinant human JAK3 catalytic domain (amino acids 781-1124) (Homo sapiens, UniProt P52333); assay: JAK3 inhibition assay; format: biochemical
Experimental: After 45 min at 30° C., reactions are stopped by adding 25 μL/well of 150 mM phosphoric acid. […] Plates are washed 6 times with 300 μL per well of a 75 mM phosphoric acid solution and the bottom of the plates is sealed. […] Kinase activity is calculated by subtracting counts per min (cpm) obtained in the presence of a positive control inhibitor (10 μM staurosporine) from cpm obtained in the presence of vehicle. The ability of a test compound to inhibit this activity (or percentage inhibition) is determined as: […]
cpm test compound=cpm determined for sample with test compound present cpm control=cpm determined for sample with positive control inhibitor cpm vehicle=cpm determined in the presence of vehicle
(§1) Dose dilution series were prepared for the compounds enabling the testing of dose-response effects in the JAK3 assay and the calculation of the IC50 for each compound. Each compound is routinely tested at concentration of 20 μM followed by a 1/5 serial dilution, 10 points in a final concentration of 1% DMSO.

[2] = biological target: T1, Recombinant human TYK2 catalytic domain (amino acids 871-1187) (Homo sapiens, UniProt P29597); assay: TYK2 radioactive assay polyGT substrate; format: biochemical; note: 0.1 µM ATP
T1 construct: catalytic domain (amino acids 871-1187)
T1 sequence (P29597 871-1187): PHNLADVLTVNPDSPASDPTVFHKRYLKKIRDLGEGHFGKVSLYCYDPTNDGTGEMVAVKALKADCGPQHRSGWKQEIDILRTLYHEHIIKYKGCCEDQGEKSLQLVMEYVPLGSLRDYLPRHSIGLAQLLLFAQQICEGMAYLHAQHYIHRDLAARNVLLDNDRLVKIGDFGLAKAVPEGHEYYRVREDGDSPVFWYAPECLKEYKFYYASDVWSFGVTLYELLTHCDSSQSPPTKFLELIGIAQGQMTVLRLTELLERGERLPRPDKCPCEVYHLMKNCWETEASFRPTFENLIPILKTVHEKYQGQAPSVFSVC
Summary of the method: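 Reaction at 30° C. for 120 min, ended with 150 mM phosphoric acid, washed, counted; percent inhibition scaled between vehicle and 10 μM staurosporine cpm.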

[3] = biological target: T2, Recombinant human JAK2 (catalytic domain, amino acids 808-1132) (Homo sapiens, UniProt O60674); assay: JAK2 inhibition assay; format: biochemical; conditions: read-out: JAK2 potency IC50; note: 0.7 µM ATP
T2 construct: catalytic domain, amino acids 808-1132
T2 sequence (O60674 808-1132): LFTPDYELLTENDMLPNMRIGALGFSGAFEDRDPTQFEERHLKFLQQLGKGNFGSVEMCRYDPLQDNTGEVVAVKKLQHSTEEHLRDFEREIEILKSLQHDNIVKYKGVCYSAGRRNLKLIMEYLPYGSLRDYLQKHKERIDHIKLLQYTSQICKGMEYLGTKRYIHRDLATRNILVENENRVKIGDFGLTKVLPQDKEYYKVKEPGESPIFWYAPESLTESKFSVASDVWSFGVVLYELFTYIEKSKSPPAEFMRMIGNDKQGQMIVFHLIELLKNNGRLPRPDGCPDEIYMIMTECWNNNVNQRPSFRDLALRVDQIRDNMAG
Experimental: (§2) After 60 min at room temperature, reactions are stopped by adding 20 μL/well of detection mixture (1× detection buffer (Perkin Elmer, catalog number CR97-100) with 0.5 nM Europium-anti-phosphotyrosine (PT66) (Perkin Elmer, catalog number AD0068/AD0069) and 10 mM EDTA). […] Kinase activity is calculated by subtracting the ratio obtained in the presence of a positive control inhibitor (1 μM staurosporine) from the ratio obtained in the presence of vehicle. The ability of a test compound to inhibit this activity (or percentage inhibition) is determined as:
(§3) [formula] wherein Fluorescent ratio test compound=ratio RFU665/RFU615*1000 determined for sample with test compound present Fluorescent ratio control=ratio RFU665/RFU615*1000 determined for sample with positive control inhibitor Fluorescent ratio vehicle=ratio RFU665/RFU615*1000 determined in the presence of vehicle
as §1, with “are” for “were”, “compound” for “the compounds”, “JAK2” for “JAK3”, “the” for “each”, “DMSO. […] The data are expressed as the average IC50 from the assays.” for “DMSO.”

[4] = biological target: T3, Recombinant human JAK1 (catalytic domain, amino acids 866-1154) (Homo sapiens, UniProt P23458); assay: JAK1 inhibition assay; format: biochemical; conditions: read-out: JAK1 potency IC50
T3 construct: catalytic domain, amino acids 866-1154
T3 sequence (P23458 866-1154): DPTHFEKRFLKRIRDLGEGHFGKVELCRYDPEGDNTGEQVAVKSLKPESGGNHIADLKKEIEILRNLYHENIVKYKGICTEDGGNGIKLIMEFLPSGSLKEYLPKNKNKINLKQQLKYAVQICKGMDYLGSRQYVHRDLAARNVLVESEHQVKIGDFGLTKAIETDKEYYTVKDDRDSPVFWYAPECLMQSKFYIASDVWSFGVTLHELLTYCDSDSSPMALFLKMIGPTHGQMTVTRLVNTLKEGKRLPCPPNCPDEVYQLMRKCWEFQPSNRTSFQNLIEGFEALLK
Experimental: as §2, with “CR97-100),” for “CR97-100) with”, “AD0068/AD0069),” for “AD0068/AD0069) and”
as §3
as §1, with “JAK1” for “JAK3”, “the” for “each”, “DMSO. […] The data are expressed as the average IC50 from the assays.” for “DMSO.”

[5] = system: IFNα activation of STAT1 in PBMC; assay: IFNα activation of STAT1 in PBMC; format: cell-based; conditions: Homo sapiens; IFNα activation of STAT1 in PBMC; average IC50; read-out: IFNα signaling inhibitory potency IC50
Summary of the method: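 Human PBMC, with red cells lysed by NH4Cl, were pre-treated with compound for 30 min at 37 °C and 5% CO2. They were then stimulated for 30 min with recombinant human IFNα at 5 ng/mL final.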

Recombinant human JAK3 catalytic domain (amino acids 781-1124), sequence (P52333 781-1124): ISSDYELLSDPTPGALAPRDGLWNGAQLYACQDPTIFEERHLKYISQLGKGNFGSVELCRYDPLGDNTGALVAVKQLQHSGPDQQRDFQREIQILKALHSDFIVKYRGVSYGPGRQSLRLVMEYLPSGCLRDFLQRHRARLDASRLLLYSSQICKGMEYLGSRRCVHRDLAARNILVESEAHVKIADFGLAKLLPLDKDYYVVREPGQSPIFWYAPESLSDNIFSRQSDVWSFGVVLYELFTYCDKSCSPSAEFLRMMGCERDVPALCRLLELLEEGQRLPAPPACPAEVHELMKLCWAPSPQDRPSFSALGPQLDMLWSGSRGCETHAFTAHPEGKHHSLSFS

IC50 [1] [nM]	IC50 [2] [nM]	IC50 [3] [nM]	IC50 [4] [nM]	Structure (SMILES)	IC50 [5] [nM]
439	3.62	20.1	84.3	COC(C)CCNc1cc(Nc2cc(Oc3cnc(C#N)cc3C)nc3c2ncn3C)ncn1 (stereo not drawn) [Compound 37, 5-{7-[6-(3-Methoxy-butylamino)-pyrimidin-4-ylamino]-3-methyl-3H-imidazo[4,5-b]pyridin-5-yloxy}-4-methyl-pyridine-2-carbonitrile]	
3220	51.6	214	343	CCNC(=O)c1cnc(Nc2cc(Oc3cnc(C#N)cc3C)nc3c2ncn3C)cc1C [Compound 64, 6-[[5-[(6-cyano-4-methyl-3-pyridyl)oxy]-3-methyl-imidazo[4,5-b]pyridin-7-yl]amino]-N-ethyl-4-methyl-pyridine-3-carboxamide]	
579	6.71	19.9	200	Cc1cc(C#N)ncc1Nc1cc(Nc2ccc(C(=O)N(C)C)nn2)c2ncn(C)c2n1 [Compound 76, 6-[[5-[(6-cyano-4-methyl-3-pyridyl)amino]-3-methyl-imidazo[4,5-b]pyridin-7-yl]amino]-N,N-dimethyl-pyridazine-3-carboxamide]	
737	9.69	31.6	60.2	CCNC(=O)c1ccc(Nc2cc(Oc3cnc(C#N)cc3C)nc3c2ncn3C)nc1C [Compound 78, 6-[[5-[(6-cyano-4-methyl-3-pyridyl)oxy]-3-methyl-imidazo[4,5-b]pyridin-7-yl]amino]-N-ethyl-2-methyl-pyridine-3-carboxamide]	
573	3.57	5.58	18.5	Cc1cc(C#N)ncc1Oc1cc(Nc2ccc(C(N(C)C)C(F)(F)F)cn2)c2ncn(C)c2n1 (stereo not drawn) [Compound 79]	
87.1	30.7	39.7	217	CC(Nc1cc(Nc2cc(N)ncn2)c2ncn(C)c2n1)C1CCC1 (stereo not drawn) [Compound 94, N7-(6-aminopyrimidin-4-yl)-N5-(1-cyclobutylethyl)-3-methyl-imidazo[4,5-b]pyridine-5,7-diamine]	
177	26.3	38	250	Cn1cnc2c(Nc3cc(N)ncn3)cc(NC(C3CC3)C3CC3)nc21 [Compound 95, N7-(6-aminopyrimidin-4-yl)-N5-(dicyclopropylmethyl)-3-methyl-imidazo[4,5-b]pyridine-5,7-diamine]	
36.4	3.08	6.29	21.8	CC(C)[C@@H](Nc1cc(Nc2ccc(C(=O)N(C)C)cn2)c2ncn(C)c2n1)C(F)(F)F [Compound 97, N,N-dimethyl-6-[[3-methyl-5-[[(1R)-2-methyl-1-(trifluoromethyl)propyl]amino]imidazo[4,5-b]pyridin-7-yl]amino]pyridine-3-carboxamide]	
916	17.8	51.1	111	Cc1cc(C#N)ncc1Oc1cc(Nc2ccc(C(=O)NCCN(C)C)cn2)c2ncn(C)c2n1 [Compound 99, 6-[[5-[(6-cyano-4-methyl-3-pyridyl)oxy]-3-methyl-imidazo[4,5-b]pyridin-7-yl]amino]-N-(2-dimethylaminoethyl)pyridine-3-carboxamide]	
912	8.06	39.4	63.5	COCCCNC(=O)c1ccc(Nc2cc(Oc3cnc(C#N)cc3C)nc3c2ncn3C)nc1 [Compound 100, 6-[[5-[(6-cyano-4-methyl-3-pyridyl)oxy]-3-methyl-imidazo[4,5-b]pyridin-7-yl]amino]-N-(3-methoxypropyl)pyridine-3-carboxamide]	
1050	5.53	29.7	310	Cc1cc(C#N)ncc1Oc1cc(Nc2ccc(C(=O)N3CC(C(C)(C)O)C3)nn2)c2ncn(C)c2n1 [Compound 111, 5-[7-[[6-[3-(1-hydroxy-1-methyl-ethyl)azetidine-1-carbonyl]pyridazin-3-yl]amino]-3-methyl-imidazo[4,5-b]pyridin-5-yl]oxy-4-methyl-pyridine-2-carbonitrile]	123
396	7.08	36.9	151	Cc1cc(C#N)ncc1Oc1cc(Nc2ccc(N3CCC(N(C)C)CC3)cn2)c2ncn(C)c2n1 [Compound 181, 5-[7-[[5-[4-(dimethylamino)-1-piperidyl]-2-pyridyl]amino]-3-methyl-imidazo[4,5-b]pyridin-5-yl]oxy-4-methyl-pyridine-2-carbonitrile]	
721	17.2	76.4	165	Cc1cc(C#N)ncc1Oc1cc(Nc2ccc(N3CCC(N(C)C)C3)cn2)c2ncn(C)c2n1 (stereo not drawn) [Compound 182, 5-[7-[[5-[3-(dimethylamino)pyrrolidin-1-yl]-2-pyridyl]amino]-3-methyl-imidazo[4,5-b]pyridin-5-yl]oxy-4-methyl-pyridine-2-carbonitrile]	
561	12.9	41.2	95.4	COCCN(C)c1ccc(Nc2cc(Oc3cnc(C#N)cc3C)nc3c2ncn3C)nc1 [Compound 183, 5-[7-[[5-[2-methoxyethyl(methyl)amino]-2-pyridyl]amino]-3-methyl-imidazo[4,5-b]pyridin-5-yl]oxy-4-methyl-pyridine-2-carbonitrile]	
487	6.42	22.1	59	Cc1cc(C#N)ncc1Oc1cc(Nc2ccc(N3CCC(CO)CC3)cn2)c2ncn(C)c2n1 [Compound 184, 5-[7-[[5-[4-(hydroxymethyl)-1-piperidyl]-2-pyridyl]amino]-3-methyl-imidazo[4,5-b]pyridin-5-yl]oxy-4-methyl-pyridine-2-carbonitrile]	
871	17	41.4	93.6	Cc1cc(C#N)ncc1Oc1cc(Nc2ccc(N(C)C)cn2)c2ncn(C)c2n1 [Compound 185, 5-[7-[[5-(dimethylamino)-2-pyridyl]amino]-3-methyl-imidazo[4,5-b]pyridin-5-yl]oxy-4-methyl-pyridine-2-carbonitrile]	
660	6.54	42.3	127	Cc1cc(C#N)ncc1N(CC(C)O)c1cc(Nc2cc(N)ncn2)c2ncn(C)c2n1 (stereo not drawn) [Cpd 187, 5-[[7-[(6-aminopyrimidin-4-yl)amino]-3-methyl-imidazo[4,5-b]pyridin-5-yl]-(2-hydroxypropyl)amino]-4-methyl-pyridine-2-carbonitrile]	
